In patent publication US20160223562A1, “Method for Determining the Concentration of a Peptide” (JPT Peptide Technologies GmbH, priority 2010, published 2016):
Square brackets hold non-standard residues; d marks the D form. Peptide text beside a SMILES is read from it. Tyr(3-NO2) = N[C@@H](Cc1ccc(O)c([N+](=O)[O-])c1)C(=O)O

Key:
Trypsin [1] = target: T1, Trypsin (Sus scrofa, UniProt P00761); assay: Trypsin cleavage of C-terminal quantification tag -SA-nitroTyr-G from peptides, LC-MS with UV detection at 350 nm; format: biochemical; conditions: for Percent Cleavage of Tag [by UV at 350 nm]: after reduction and alkylation, trypsin enzyme/substrate 1:50 over night at RT
T1 construct: purchased Promega Corporation V511
Procedure: 23 peptides carrying the C-terminal quantification-tag-SA-nitroTyr-G-OH (SEQ ID NO:2) were synthesized by Fmoc-based solid phase peptide synthesis and purified by HPLC. Each peptide was subjected to the following trypsin cleavage protocol:
Trypsin Activation: Trypsin (20 μg, sequencing grade modified trypsin, Promega Corporation, Madison, Wis., USA, catalogue no. V511, specific activity 16.965 u/mg) was dissolved in Trypsin resuspension buffer (200 μL, Promega, catalogue no. V542A, ingredient 50 mM acetic acid) and incubated for 15 min at 37° C.
Reduction and alkylation: The peptide (approx. 0.05 mg) was dissolved in 1 M urea and 100 mM fresh ammonium hydrogen carbonate (300 μL). TCEP (Tris(2-carboxyethyl) phosphine hydrochloride, 0.2 M, 7.5 μL, final concentration 5 mM) was added and the solution incubated at 37° C. for 1 h. After addition of iodoacetamide (0.5 M, 6.0 μL, final concentration 10 mM) the solution was incubated at RT in the dark for another 30 min. Digestion: The sample was digested with activated Trypsin solution (10 μL per well, 1.0 μg, resulting enzyme/substrate ratio 1:50) over night at RT. To stop the digestion, HCl (2 M, 8 μL final concentration 50 mM) and TFA (3.2 μL, final concentration 1%, pH<2) were added. Finally, the sample was analyzed by LC-MS at 350 nm.

Trypsin [2] = target: T1, Trypsin; assay: Trypsin cleavage of N-terminal quantification tag Ac-nitroTyr-SGK- from peptides, LC-MS with UV detection at 350 nm; format: biochemical; conditions: for Kusebauch 24 h, RT: Percent Cleavage of Tag [by UV350 - Peptide-Tag vs. Tag]: trypsin protocol of example 9, 24 h; for cleavage efficiency in words: trypsin

T1 sequence (P00761 9-231): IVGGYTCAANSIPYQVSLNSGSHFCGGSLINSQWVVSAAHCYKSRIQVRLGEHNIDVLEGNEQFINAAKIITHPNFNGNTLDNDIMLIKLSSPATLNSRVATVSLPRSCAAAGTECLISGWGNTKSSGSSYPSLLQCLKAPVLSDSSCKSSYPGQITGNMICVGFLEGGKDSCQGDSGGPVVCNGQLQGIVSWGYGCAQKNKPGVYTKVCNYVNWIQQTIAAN

Compound	Percent Cleavage of Tag [by UV at 350 nm] (Trypsin [1]) [%]	Kusebauch 24 h, RT: Percent Cleavage of Tag [by UV350 - Peptide-Tag vs. Tag] (Trypsin [2]) [%]	cleavage efficiency in words (Trypsin [2])	cleavage efficiency (LC-MS and UV detection at 350 nm) (Trypsin [1]; trypsin over night at RT) [%]
CC[C@H](C)[C@H](NC(=O)[C@H](Cc1ccccc1)NC(=O)[C@H](Cc1ccc(O)cc1)NC(=O)[C@H](Cc1c[nH]cn1)NC(=O)[C@@H](NC(=O)[C@H](Cc1ccccc1)NC(=O)[C@H](CCCCN)NC(=O)CNC(=O)[C@H](CO)NC(=O)[C@H](Cc1ccc(O)c([N+](=O)[O-])c1)NC(C)=O)[C@@H](C)O)C(=O)N[C@@H](CC(=O)O)C(=O)N[C@@H](CC(C)C)C(=O)N[C@@H](CC(N)=O)C(=O)N[C@@H](CCCCN)C(=O)O [Peptide 5, Ac-nitroTyr-SGKFTHYFIDLN-K-OH] (Ac-[Tyr(3-NO2)]SGKFTHYFIDLNK-OH)	100	99.0		
CC[C@H](C)[C@H](NC(=O)[C@H](Cc1ccccc1)NC(=O)[C@H](Cc1ccc(O)cc1)NC(=O)[C@H](Cc1c[nH]cn1)NC(=O)[C@@H](NC(=O)[C@@H](NC(=O)[C@H](CCCCN)NC(=O)CNC(=O)[C@H](CO)NC(=O)[C@H](Cc1ccc(O)c([N+](=O)[O-])c1)NC(C)=O)[C@@H](C)CC)[C@@H](C)O)C(=O)N[C@@H](CC(=O)O)C(=O)N[C@@H](CC(C)C)C(=O)N[C@@H](CC(N)=O)C(=O)N[C@@H](CCCCN)C(=O)O [Peptide 8, Ac-nitroTyr-SGKITHYFIDLN-K-OH] (Ac-[Tyr(3-NO2)]SGKITHYFIDLNK-OH)	100	100.0		
CC[C@H](C)[C@H](NC(=O)[C@H](Cc1ccccc1)NC(=O)[C@H](Cc1ccc(O)cc1)NC(=O)[C@H](Cc1c[nH]cn1)NC(=O)[C@@H](NC(=O)CNC(=O)[C@H](CCCCN)NC(=O)CNC(=O)[C@H](CO)NC(=O)[C@H](Cc1ccc(O)c([N+](=O)[O-])c1)NC(C)=O)[C@@H](C)O)C(=O)N[C@@H](CC(=O)O)C(=O)N[C@@H](CC(C)C)C(=O)N[C@@H](CC(N)=O)C(=O)N[C@@H](CCCCN)C(=O)O [Peptide 6, Ac-nitroTyr-SGKGTHYFIDLN-K-OH] (Ac-[Tyr(3-NO2)]SGKGTHYFIDLNK-OH)	100	100.0		
CC[C@H](C)[C@H](NC(=O)[C@H](Cc1ccccc1)NC(=O)[C@H](Cc1ccc(O)cc1)NC(=O)[C@H](Cc1c[nH]cn1)NC(=O)[C@@H](NC(=O)[C@H](CCCCN)NC(=O)[C@H](CCCCN)NC(=O)CNC(=O)[C@H](CO)NC(=O)[C@H](Cc1ccc(O)c([N+](=O)[O-])c1)NC(C)=O)[C@@H](C)O)C(=O)N[C@@H](CC(=O)O)C(=O)N[C@@H](CC(C)C)C(=O)N[C@@H](CC(N)=O)C(=O)N[C@@H](CCCCN)C(=O)O [Peptide 9, Ac-nitroTyr-SGKKTHYFIDLN-K-OH] (Ac-[Tyr(3-NO2)]SGKKTHYFIDLNK-OH)	99.2	100.0	good cleavage efficiencies	
CC[C@H](C)[C@H](NC(=O)[C@H](Cc1ccccc1)NC(=O)[C@H](Cc1ccc(O)cc1)NC(=O)[C@H](Cc1c[nH]cn1)NC(=O)[C@@H](NC(=O)[C@H](CC(N)=O)NC(=O)[C@H](CCCCN)NC(=O)CNC(=O)[C@H](CO)NC(=O)[C@H](Cc1ccc(O)c([N+](=O)[O-])c1)NC(C)=O)[C@@H](C)O)C(=O)N[C@@H](CC(=O)O)C(=O)N[C@@H](CC(C)C)C(=O)N[C@@H](CC(N)=O)C(=O)N[C@@H](CCCCN)C(=O)O [Peptide 12, Ac-nitroTyr-SGKNTHYFIDLN-K-OH] (Ac-[Tyr(3-NO2)]SGKNTHYFIDLNK-OH)	100	100.0		
CC[C@H](C)[C@H](NC(=O)[C@H](Cc1ccccc1)NC(=O)[C@H](Cc1ccc(O)cc1)NC(=O)[C@H](Cc1c[nH]cn1)NC(=O)[C@@H](NC(=O)[C@H](CCSC)NC(=O)[C@H](CCCCN)NC(=O)CNC(=O)[C@H](CO)NC(=O)[C@H](Cc1ccc(O)c([N+](=O)[O-])c1)NC(C)=O)[C@@H](C)O)C(=O)N[C@@H](CC(=O)O)C(=O)N[C@@H](CC(C)C)C(=O)N[C@@H](CC(N)=O)C(=O)N[C@@H](CCCCN)C(=O)O [Peptide 11, Ac-nitroTyr-SGKMTHYFIDLN-K-OH] (Ac-[Tyr(3-NO2)]SGKMTHYFIDLNK-OH)	100	100.0		
CC[C@H](C)[C@H](NC(=O)[C@H](Cc1ccccc1)NC(=O)[C@H](Cc1ccc(O)cc1)NC(=O)[C@H](Cc1c[nH]cn1)NC(=O)[C@@H](NC(=O)[C@H](CO)NC(=O)[C@H](CCCCN)NC(=O)CNC(=O)[C@H](CO)NC(=O)[C@H](Cc1ccc(O)c([N+](=O)[O-])c1)NC(C)=O)[C@@H](C)O)C(=O)N[C@@H](CC(=O)O)C(=O)N[C@@H](CC(C)C)C(=O)N[C@@H](CC(N)=O)C(=O)N[C@@H](CCCCN)C(=O)O [Peptide 16, Ac-nitroTyr-SGKSTHYFIDLN-K-OH] (Ac-[Tyr(3-NO2)]SGKSTHYFIDLNK-OH)	100	100.0		
CC[C@H](C)[C@H](NC(=O)[C@H](Cc1ccccc1)NC(=O)[C@H](Cc1ccc(O)cc1)NC(=O)[C@H](Cc1c[nH]cn1)NC(=O)[C@@H](NC(=O)[C@H](Cc1ccc(O)cc1)NC(=O)[C@H](CCCCN)NC(=O)CNC(=O)[C@H](CO)NC(=O)[C@H](Cc1ccc(O)c([N+](=O)[O-])c1)NC(C)=O)[C@@H](C)O)C(=O)N[C@@H](CC(=O)O)C(=O)N[C@@H](CC(C)C)C(=O)N[C@@H](CC(N)=O)C(=O)N[C@@H](CCCCN)C(=O)O [Peptide 20, Ac-nitroTyr-SGKYTHYFIDLN-K-OH] (Ac-[Tyr(3-NO2)]SGKYTHYFIDLNK-OH)	74.7	100.0		75
CC[C@H](C)[C@H](NC(=O)[C@H](Cc1ccccc1)NC(=O)[C@H](Cc1ccc(O)cc1)NC(=O)[C@H](Cc1c[nH]cn1)NC(=O)[C@@H](NC(=O)[C@@H](NC(=O)[C@H](CCCCN)NC(=O)CNC(=O)[C@H](CO)NC(=O)[C@H](Cc1ccc(O)c([N+](=O)[O-])c1)NC(C)=O)[C@@H](C)O)[C@@H](C)O)C(=O)N[C@@H](CC(=O)O)C(=O)N[C@@H](CC(C)C)C(=O)N[C@@H](CC(N)=O)C(=O)N[C@@H](CCCCN)C(=O)O [Peptide 17, Ac-nitroTyr-SGKTTHYFIDLN-K-OH] (Ac-[Tyr(3-NO2)]SGKTTHYFIDLNK-OH)	100	100.0		
Ac-nitroTyr-SGKHTHYFIDLN-K-OH (Ac-[Tyr(3-NO2)]SGKHTHYFIDLNK-OH; SMILES CC[C@H](C)[C@H](NC(=O)[C@H](Cc1ccccc1)NC(=O)[C@H](Cc1ccc(O)cc1)NC(=O)[C@H](Cc1c[nH]cn1)NC(=O)[C@@H](NC(=O)[C@H](Cc1c[nH]cn1)NC(=O)[C@H](CCCCN)NC(=O)CNC(=O)[C@H](CO)NC(=O)[C@H](Cc1ccc(O)c([N+](=O)[O-])c1)NC(C)=O)[C@@H](C)O)C(=O)N[C@@H](CC(=O)O)C(=O)N[C@@H](CC(C)C)C(=O)N[C@@H](CC(N)=O)C(=O)N[C@@H](CCCCN)C(=O)O) [Peptide 7]	100	100.0		
CC[C@H](C)[C@H](NC(=O)[C@H](Cc1ccccc1)NC(=O)[C@H](Cc1ccc(O)cc1)NC(=O)[C@H](Cc1c[nH]cn1)NC(=O)[C@@H](NC(=O)[C@H](CCC(N)=O)NC(=O)[C@H](CCCCN)NC(=O)CNC(=O)[C@H](CO)NC(=O)[C@H](Cc1ccc(O)c([N+](=O)[O-])c1)NC(C)=O)[C@@H](C)O)C(=O)N[C@@H](CC(=O)O)C(=O)N[C@@H](CC(C)C)C(=O)N[C@@H](CC(N)=O)C(=O)N[C@@H](CCCCN)C(=O)O [Peptide 14, Ac-nitroTyr-SGKQTHYFIDLN-K-OH] (Ac-[Tyr(3-NO2)]SGKQTHYFIDLNK-OH)	99.6	100.0		
CC[C@H](C)[C@H](NC(=O)[C@H](Cc1ccccc1)NC(=O)[C@H](Cc1ccc(O)cc1)NC(=O)[C@H](Cc1c[nH]cn1)NC(=O)[C@@H](NC(=O)[C@H](CCCNC(=N)N)NC(=O)[C@H](CCCCN)NC(=O)CNC(=O)[C@H](CO)NC(=O)[C@H](Cc1ccc(O)c([N+](=O)[O-])c1)NC(C)=O)[C@@H](C)O)C(=O)N[C@@H](CC(=O)O)C(=O)N[C@@H](CC(C)C)C(=O)N[C@@H](CC(N)=O)C(=O)N[C@@H](CCCCN)C(=O)O [Peptide 15, Ac-nitroTyr-SGKRTHYFIDLN-K-OH] (Ac-[Tyr(3-NO2)]SGKRTHYFIDLNK-OH)	100	100.0	good cleavage efficiencies	
